Consider 4 compounds from patent EP2767286B1, “ORAL PHARMACEUTICAL COMPOSITION FOR THE TREATMENT OF INFLAMMATORY GASTROINTESTINAL DISEASES” (Obshestvo S Ogranichennoj Otvetstvennostju "CytoNIR", priority 2011, dated 2018).

In assay [1] the test system is Versuchsmodell der toxischen Hepatitis. The experiment in a line: Hepatoprotective activity in the experimental model of toxic hepatitis (TCM). It is filed as in vivo, Ratten der Linie Sprague-Dawley. To be noted: 100 mg/kg, blood; for APh: alkalische Phosphatase. An excerpt: Beispiel 2 Bewertung der hepatoprotektiven Aktivität der erfindungsgemäßen pharmazeutischen Zubereitung bei Verabreichung am Versuchsmodell der toxischen Hepatitis.
Jede Versuchsgruppe zählte 10 Tiere. Die zu untersuchenden Präparate wurden den Ratten in Form von Wasserlösung intragastrisch mit einer atraumatischen Metallsonde eingeführt. Die Referenztiere bekamen Reinwasser verabreicht.
Als Vergleichspräparat wurde bei der Untersuchung der hepatoprotektiven Aktivität das Präparat Silibinin in Kapseln, Fabrikat Rosa-Phytopharm (Bulgarien) verwendet. in der gleichen Menge wie das Volumen der hepatoprotektiven Mittel behandelt. Die hepatoprotektive Aktivität wurde 7 und 14 Tage ab Anfang der Behandlung bewertet. Im Blutserum wurden die Aktivität von Aspartat-Amino-transferase (ASAT), Alanin-Aminotransferase (ALT), alkalische Phosphatase sowie der Cholesterinspiegel, Triglyzeridespiegel ermittelt. […]
Die statistische Datenverarbeitung wurde anhand der handelsüblichen Software Microsoft Excel durchgeführt. Die Unterschiede zwischen den Stichproben wurden anhand des Student t-Tests bewertet. […] Die Angaben sind in der Tabelle 3 aufgeführt. Tabelle 3. […] Tag […]

Assay [2] deals with chronischen Duodenalulkus durch Heliobacter pylori. To be noted: peroral, in complex therapy; cited from earlier work.
The test system of assay [3] is Modell des Indometacin-Magengeschwürs. In words: Gastroprotective activity in the indometacin gastric ulcer model. The format is in vivo, Ratten der Linie Sprague-Dawley. An excerpt: Beispiel 1 Gastroprotektive Aktivität der erfindungsgemäßen pharmazeutischen Zubereitung bei Verabreichung am Modell einer Geschwürbildung.
Die experimentelle Forschung wurde an 50 männlichen Auszucht-Ratten der Linie Sprague-Dawley mit einem Körpergewicht von 180 - 200 g durchgeführt. Vor den Versuchen wurden die Tiere einer 14 Tage langen Quarantäne und Randomisierung unterzogen. Die Tiere wurden unter Vivarium-Bedingungen mit genormter Nahrungsration unterhalten.
Die Tiere wurden in folgende Gruppen aufgeteilt: • Ratten, die mit einem ulzerogenen Präparat (Indometacin) und Kochsalzlösung (2 ml/kg) behandelt wurden; diese Tiere bilden die Vergleichsgruppe (Referenzgruppe); • Ratten, die mit einem ulzerogenen Präparat intragastrisch und einem Vergleichspräparat (Sucralfate in der Dosis von 200,0 mg/kg) behandelt wurden; • Ratten, die mit einem ulzerogenen Präparat intragastrisch und mit der pharmazeutischen Zubereitung (10,0 µg/kg) behandelt wurden; • Ratten, die mit einem ulzerogenen Präparat intragastrisch und mit der pharmazeutischen Zubereitung (0,1 µg/kg) behandelt wurden. physiologischen Lösung verabreicht. Die pharmazeutische Zubereitung und das Vergleichspräparat in den oben genannten Mengen wurden im Laufe von 7 Tagen ab dem Zeitpunkt der Simulation des Indometacin-Magengeschwürs (Heilschema) intragastrisch verabreicht. Die Tiere der Referenzgruppe wurden mit Äquivolumen-Mengen des Lösemittels unter entsprechenden Regimes behandelt.
Das Körpergewicht der Tiere wurde im Zeitablauf ermittelt. 24 Stunden nach Abschluss dieser Behandlung wurden die Tiere der Euthanasie mittels prompter Dekapitation unter Blutabnahme unterzogen. Die Mägen wurden entnommen, an der Minorseite aufgeschnitten und mit kalter Kochsalzlösung gewaschen. Die Destruktionszahl wurde makroskopisch mit Hilfe von einem Binokular unter heller Vertikalbeleuchtung ermittelt. Die Destruktionen wurden je nach ihrem Flächeninhalt wie folgt differenziert: Fein (punktförmig, Größe von unter 1 mm), mittelmäßig (rund und streifenförmig, ab 1 mm) und groß (über 1- 2 mm). Das Vorhandensein von Blut an der Destruktionsunterkante wurde anhand der Peroxydase-Reaktion mit Orthodianisidin-Substrat unter Kennfärben der Schleimhaut mit Methylenblau erkannt. Dabei wurde die hämhaltige Oberfläche braun-schwarz im bläulichen Hintergrund der intakten Schleimhaut gefärbt.
Die Verteilung der Tiere in der Gruppe mit Schleimhautfehlern wurde je nach Grad der Ausprägung der makroskopischen Änderungen erfasst. Der Paul's Index (PI) wurde wie folgt berechnet: durchschnittliche Geschwürmenge x % der Tiere mit Geschwüren / 100 %. Die gastroprotektive Aktivität (GA) wurde als PI / PI Verhältnis zwischen der Referenzgruppe und einer Versuchsgruppe berechnet. Das zu untersuchende Präparat wurde als aktiv beurteilt, wenn GA 2 und mehr betrug.
Die statistische Datenverarbeitung wurde anhand der handelsüblichen Software Microsoft Excel durchgeführt. Die Relevanz der Änderungen wurde unter Anwendung des Student t-Tests berechnet.

For assay [4], the system named is nicht durch Heliobacter pylori assoziierte Magengeschwüren. To be noted: peroral, in complex therapy; cited from earlier work.

Marks after values point to notes of the source that are not given here. Ends that are not written are not given here.

Take `COc1cc(C2Oc3cc([C@H]4Oc5cc(O)cc(O)c5C(=O)[C@@H]4O)ccc3OC2CO)ccc1O` (some centres unmarked) [Silibinin]: in assay [1] (7. Behandlungstag), the APh worked out at 469±30 nMol/s x L, the ALAT is on record as 1,56±0,12 mMol/Einheiten x L, the ASAT was 1,28±0,15 mMol/Einheiten x L and the Cholesterin was 3,60±0,18 mMol/ L. Besides, the Triglyzeride in assay [1] (7. Behandlungstag) is 2,44±0,12 mMol/ L. For the same compound, in assay [1] (14. Behandlungstag), the APh stood at 288±17 nMol/s x L, the ALAT is 0,99±0,16 mMol/Einheiten x L, the ASAT was 0,75±0,11 mMol/Einheiten x L and the Cholesterin was 1,99±0,12 mMol/ L. In assay [1] (14. Behandlungstag), the Triglyzeride is listed as 1,48±0,14 mMol/ L.

As for “N-Acetyl- Glukosaminyl- 1 -4-N-Acetylmuramid- L-Alanyl- D-Isoglutamin [Licopid]”, in assay [2], the “Eradikation von Heliobacter pylori und Wiederherstellung der Magenschleimhaut” value is “hohe Effizienz hinsichtlich der Eradikation von Heliobacter pylori”.

As for Sucralfate, in assay [3] (200 mg/kg intragastric, 7 days), the “Anzahl der Geschwüre (X ± m) Fein” value is given as 8±2, the “Anzahl der Geschwüre (X ± m) Groß” value came out at 5±2, the “Anzahl der Geschwüre (X ± m) Mittelmäßig” value is listed as 4±1 and the “Tiere mit Geschwüren” value came to 100%. Moreover, in assay [3] (200 mg/kg intragastric, 7 days, Paul's Index), the PI was 16,9*. For the same compound, in assay [3] (200 mg/kg intragastric, 7 days, gastroprotektive Aktivität, PI reference / PI test group, active if 2 or more), the GA was 2,05. Also, the “Durchschnitt (X±m)” value in assay [3] (200 mg/kg intragastric, 7 days, mean number of ulcers) was found to be 17±4. In assay [3] (200 mg/kg intragastric, 3 Tage), the “Körpergewichtsverlauf (M±m)” value came out at 186 ± 4 g. The “Körpergewichtsverlauf (M±m)” value in assay [3] (200 mg/kg intragastric, 7 Tage) came to 169 ± 3 g. Moreover, the “Körpergewichtsverlauf (M±m)” value in assay [3] (200 mg/kg intragastric, Hintergrund (baseline)) was determined as 198 ± 3 g. Further, the “Hyperämie der Schleimhaut, Anteil der Tiere” value in assay [3] (Sucralfate 200 mg/kg) is on record as 40%.

With “TEKRRETVEREKE [Gepon, synthetischer Peptid-Immunmodulator]”, the “Regeneration, Vernarbungszeit, zellgebundene Immunität” value in assay [4] is recorded as “Beschleunigung der Regenerationsvorgänge, zur Abkürzung der Vernarbungszeit des ulzerösen Defekts und zur Verbesserung der Kenndaten der zellgebundenen Immunität”.
